In patent US20250042922A1, “KRAS MODULATING COMPOUNDS” (priority 2023, published 2025) one finds EC50 and IC50 data, which are given here for ten compounds.

The subject of test [1] is cellular pERK in Kuramochi (WT KRAS) cells. Description: Cell based pERK assay, Kuramochi. The following applies: Kuramochi (WT KRAS), 2 hours incubation, HTRF phospho-ERK1/2; read-out: Kuramochi pERK EC50. The method, boiled down: (§1)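 Cells seeded overnight (5000 AsPC-1 or 7500 others per well; RPMI/10% FBS, DMEM/10% FBS for MIA-PaCa-2), treated with 1:3 serial dilutions for 2 h at 37 °C. Phospho-ERK1/2 (Thr202/Tyr204) measured by HTRF (665/615 nm) after overnight lysis, normalized to DMSO and saturating known-inhibitor controls.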

Another test deals with GDP-loaded KRAS-G12D (Homo sapiens, UniProt P01116, G12D). Description: KRAS (GDP) biochemical TR-FRET probe displacement assay, G12D. It counts as binding. The following applies: 2 hours. How it is done:
(§2) Compounds are tested for binding to GDP-loaded wild-type KRAS (WT), KRAS-G12C, KRAS-G12D, and KRAS-G12V in a 384-well assay format using a TR-FRET probe displacement assay in buffer consisting of 50 mM Hepes (pH 7.4), 150 mM NaCl, 5 mM MgCl2 and 0.005% Tween-20. […] Compounds are serially diluted (1:3) in DMSO. The LabCyte ECHO Acoustic dispenser was used to pre-spot the assay plates (384-well Non-Binding Surface plates, Corning, Catalog #3824) with 50 nL of compound. 5 μL of 2X enzyme concentration is added to the pre-spotted plates and incubated for 30 minutes before adding 5 μL of 2X concentration of Eu-streptavidin and Cy-5 labelled probe (10 μL final reaction volume). The plates are incubated at room temperature for 2 hours before measuring TR-FRET ratio (665 nm/615 nm) on the Envision multimode plate reader. The ratios are normalized to a positive (saturating concentration of known inhibitor) and negative (DMSO) control and plotted against the log of compound concentration.
(Time-resolved FRET reads energy transfer from a long-lived donor to a nearby acceptor.)

Test [2] concerns cellular pERK in NCI-H441 (KRAS-G12V) cells. Description: Cell based pERK assay, NCI-H441. The following applies: Homo sapiens; NCI-H441 (KRAS-G12V), 2 hours incubation, HTRF phospho-ERK1/2; read-out: H441 PERK EC50. The method, boiled down:
as §1

The target of test [3] is GDP-loaded wild-type KRAS (WT) (Homo sapiens, UniProt P01116). Nature of the test: KRAS (GDP) biochemical TR-FRET probe displacement assay, WT. The class given is binding. The following applies: 2 hours. On the procedure:
as §2

For test [4], the system named is cellular pERK in MIA-PaCa-2 (KRAS-G12C) cells. Nature of the test: Cell based pERK assay, MIA-PaCa-2. The following applies: Homo sapiens; MIA-PaCa-2 (KRAS-G12C), 2 hours incubation, HTRF phospho-ERK1/2; read-out: MIAPaCa2 pERK EC50. The method, boiled down:
as §1

Test [5] relates to cellular pERK in ASPC-1 (KRAS G12D) cells. Nature of the test: Cell based pERK assay, ASPC-1. The following applies: Homo sapiens, ASPC1; ASPC-1 (KRAS G12D), 2 hours incubation, HTRF phospho-ERK1/2; read-out: AsPC1 pERK EC50. Summed up: as §1
For another test, the target named is GDP-loaded KRAS-G12C (Homo sapiens, UniProt P01116, G12C). Nature of the test: KRAS (GDP) biochemical TR-FRET probe displacement assay, G12C. The following applies: 2 hours. The class given is binding. How it is done:
as §2

The target of a further test is GDP-loaded KRAS-G12V (Homo sapiens, UniProt P01116, G12V). Description: KRAS (GDP) biochemical TR-FRET probe displacement assay, G12V. The class given is binding. The following applies: 2 hours. On the procedure:
as §2

GDP-loaded KRAS-G12C, sequence (P01116 1-188 isoform P01116-2 G12C): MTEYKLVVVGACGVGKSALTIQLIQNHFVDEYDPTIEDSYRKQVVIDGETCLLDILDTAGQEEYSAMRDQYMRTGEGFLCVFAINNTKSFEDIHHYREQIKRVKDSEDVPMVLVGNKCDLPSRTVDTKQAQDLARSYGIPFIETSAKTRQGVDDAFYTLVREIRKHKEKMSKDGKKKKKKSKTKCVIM
GDP-loaded wild-type KRAS (WT), sequence (P01116 1-188 isoform P01116-2): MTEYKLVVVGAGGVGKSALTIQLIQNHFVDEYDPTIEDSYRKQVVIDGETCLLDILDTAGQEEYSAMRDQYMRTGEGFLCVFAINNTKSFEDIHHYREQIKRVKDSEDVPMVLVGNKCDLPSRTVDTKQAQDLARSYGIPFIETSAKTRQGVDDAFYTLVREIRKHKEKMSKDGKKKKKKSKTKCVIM
GDP-loaded KRAS-G12V, sequence (P01116 1-188 isoform P01116-2 G12V): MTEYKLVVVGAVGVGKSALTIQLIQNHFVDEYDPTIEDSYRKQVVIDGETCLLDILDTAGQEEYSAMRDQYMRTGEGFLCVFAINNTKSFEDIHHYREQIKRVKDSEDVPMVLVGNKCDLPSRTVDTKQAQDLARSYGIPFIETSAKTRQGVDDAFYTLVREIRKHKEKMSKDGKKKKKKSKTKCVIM
GDP-loaded KRAS-G12D, sequence (P01116 1-188 isoform P01116-2 G12D): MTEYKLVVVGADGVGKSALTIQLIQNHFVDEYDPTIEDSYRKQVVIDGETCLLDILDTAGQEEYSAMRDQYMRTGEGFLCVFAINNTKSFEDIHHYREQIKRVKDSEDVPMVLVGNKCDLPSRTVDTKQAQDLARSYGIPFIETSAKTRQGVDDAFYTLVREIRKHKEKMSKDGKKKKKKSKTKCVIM

For orientation: EC50 means the concentration that produces a half-maximal response. A word on the IC50: it is the point on the concentration scale where inhibition reaches its midpoint. Low readings indicate higher potency, high ones lower potency. In the case of `Cc1c(F)c(N)cc(-c2nc3c4c(nc(OCC56CCCN5CCC6)nc4c2F)N2C[C@@]4(F)CC[C@](F)(N4)[C@@H]2[C@@H](C)C3)c1C(F)(F)F` [Example 4-13, 2-fluoro-3-methyl-5-((5S,5aS,6R,9S)-1,6,9-trifluoro-5-methyl-12-((tetrahydro-1H-pyrrolizin-7a(5H)-yl)methoxy)-4,5,5a,6,7,8,9,10-octahydro-3,10a,11,13,14-pentaaza-6,9-methanonaphtho[1,8-ab]heptalen-2-yl)-4-(trifluoromethyl)aniline], the EC50 in test [1] amounted to 2.77 nM; in test [2], 18.3 nM; in test [4], 5.66 nM; in test [5], 109 nM. The IC50 at GDP-loaded KRAS-G12D worked out at 20.2 nM; in test [3] it was 0.411 nM; on GDP-loaded KRAS-G12C, 3.81 nM; on GDP-loaded KRAS-G12V, 8.04 nM.
Turning to `C[C@H]1Cc2nc(-c3ccc(F)c4sc(N)c(C#N)c34)c(F)c3nc(OCC45CCCN4CCC5)nc(c23)N2C[C@@]3(F)CC[C@](F)(N3)[C@H]12` [Example 4-14, 2-amino-7-fluoro-4-((5S,5aS,6R,9S)-1,6,9-trifluoro-5-methyl-12-((tetrahydro-1H-pyrrolizin-7a(5H)-yl)methoxy)-4,5,5a,6,7,8,9,10-octahydro-3,10a,11,13,14-pentaaza-6,9-methanonaphtho[1,8-ab]heptalen-2-yl)benzo[b]thiophene-3-carbonitrile], the EC50 in test [1] was 10.6 nM; in test [2], 5.29 nM; in test [4], 1.15 nM; in test [5], 40.2 nM. Also, the IC50 is 1.15 nM at GDP-loaded KRAS-G12D, 0.321 nM in test [3], 0.534 nM on GDP-loaded KRAS-G12C and 0.537 nM on GDP-loaded KRAS-G12V.
Take `N#Cc1c(N)sc2c(F)ccc(-c3nc4c5c(nc(OC[C@@]67CCCN6C[C@H](F)C7)nc5c3F)N3C[C@@]5(F)CC[C@](F)(N5)[C@@H]3CC4)c12` [Example 4-21, 2-amino-7-fluoro-4-((5aS,6R,9S)-1,6,9-trifluoro-12-(((2R,7aS)-2-fluorotetrahydro-1H-pyrrolizin-7a(5H)-yl)methoxy)-4,5,5a,6,7,8,9,10-octahydro-3,10a,11,13,14-pentaaza-6,9-methanonaphtho[1,8-ab]heptalen-2-yl)benzo[b]thiophene-3-carbonitrile]: the EC50 in test [1] was determined as 1.73 nM; in test [2], 1.1 nM; in test [4] it was 0.313 nM; in test [5] it was 5.96 nM. For the same compound, the IC50 was 2.32 nM on GDP-loaded KRAS-G12D, 0.18 nM in test [3], 0.363 nM on GDP-loaded KRAS-G12C and 0.844 nM on GDP-loaded KRAS-G12V.
With `Oc1cc(-c2nc3c4c(nc(OCC56CCCN5CCC6)nc4c2F)N2C[C@@]4(F)CC[C@](F)(N4)[C@H]2CCC3)c2c(OC(F)(F)F)c(F)ccc2c1` [Example 4-23, 6-fluoro-4-[(4S,7R,8R)-4,7,15-trifluoro-18-(1,2,3,5,6,7-hexahydropyrrolizin-8-ylmethoxy)-2,13,17,19,21-pentazapentacyclo[10.7.1.14,7.02,8.016,20]henicosa-1(19),12(20),13,15,17-pentaen-14-yl]-5-(trifluoromethoxy)naphthalen-2-ol], the EC50 turned out to be 2.6 nM in test [1], 6.87 nM in test [2], 1.19 nM in test [4] and 51.4 nM in test [5]. Also, the IC50 at GDP-loaded KRAS-G12D was 3.65 nM; in test [3], 0.502 nM; at GDP-loaded KRAS-G12C, 0.592 nM; at GDP-loaded KRAS-G12V it was 2.14 nM.
Take `Cn1ccc2cc(N)cc(-c3nc4c5c(nc(OCC67CCCN6CCC7)nc5c3F)N3C[C@@]5(F)CC[C@](F)(N5)[C@H]3CCC4)c2c1=O` [Example 4-25]: the EC50 in test [1], in test [2], in test [4] and in test [5] was above 1000 nM throughout. The IC50 (on GDP-loaded KRAS-G12D; in test [3]; on GDP-loaded KRAS-G12C; on GDP-loaded KRAS-G12V) was above 100 nM throughout.
Consider `C/C=C\c1c(Cl)cc2[nH]ncc2c1-c1nc2c3c(nc(OCC45CCCN4CCC5)nc3c1F)N1C[C@@]3(F)CC[C@](F)(N3)[C@H]1CCC2` [Example 4-26, (4S,7R,8R)-14-[6-chloro-5-[(Z)-prop-1-enyl]-1H-indazol-4-yl]-4,7,15-trifluoro-18-(1,2,3,5,6,7-hexahydropyrrolizin-8-ylmethoxy)-2,13,17,19,21-pentazapentacyclo[10.7.1.14,7.02,8.016,20]henicosa-1(19),12(20),13,15,17-pentaene], for which the EC50 in test [1] stood at 4.34 nM; in test [2], 31.4 nM; in test [4], 0.785 nM; in test [5] it was 45.4 nM. Also, the IC50 turned out to be 6.69 nM on GDP-loaded KRAS-G12D, 1.85 nM in test [3], 1.24 nM on GDP-loaded KRAS-G12C and 4.33 nM on GDP-loaded KRAS-G12V.
As to `C[C@H]1Cc2nc(-c3cc(O)cc4ccc(F)c(Cl)c34)c(F)c3nc(OCC45CCCN4CCC5)nc(c23)N2C[C@@]3(F)CC[C@](F)(N3)[C@H]12` [Example 4-30, 5-chloro-6-fluoro-4-((5S,5aS,6R,9S)-1,6,9-trifluoro-5-methyl-12-((tetrahydro-1H-pyrrolizin-7a(5H)-yl)methoxy)-4,5,5a,6,7,8,9,10-octahydro-3,10a,11,13,14-pentaaza-6,9-methanonaphtho[1,8-ab]heptalen-2-yl)naphthalen-2-ol], the EC50 in test [1] amounted to 1.94 nM; in test [2], 4.88 nM; in test [4] it was 0.365 nM; in test [5] it was 18 nM. Moreover, the IC50 on GDP-loaded KRAS-G12D was found to be 0.869 nM; in test [3], 0.092 nM; at GDP-loaded KRAS-G12C it was 0.194 nM; on GDP-loaded KRAS-G12V it was 0.405 nM.
On to `C#Cc1c(F)ccc2cc(N)cc(-c3nc4c5c(nc(OC[C@@]67CCCN6[C@H](COC(C(F)(F)F)(C(F)(F)F)C(F)(F)F)CC7)nc5c3F)N3C[C@@]5(F)CC[C@](F)(N5)[C@@H]3[C@@H](C)C4)c12` [Example 4-36, 5-ethynyl-6-fluoro-4-((5S,5aS,6R,9S)-1,6,9-trifluoro-12-(((3S,7aS)-3-(((1,1,1,3,3,3-hexafluoro-2-(trifluoromethyl)propan-2-yl)oxy)methyl)tetrahydro-1H-pyrrolizin-7a(5H)-yl)methoxy)-5-methyl-4,5,5a,6,7,8,9,10-octahydro-3,10a,11,13,14-pentaaza-6,9-methanonaphtho[1,8-ab]heptalen-2-yl)naphthalen-2-amine], for which the EC50 was 671 nM in test [1], above 1000 nM in test [2], above 1000 nM in test [4] and above 1000 nM in test [5]. Further, the IC50 (on GDP-loaded KRAS-G12D; in test [3]; on GDP-loaded KRAS-G12C; on GDP-loaded KRAS-G12V) was above 100 nM in each case.
For the compound `C#Cc1c(F)ccc2cc(O)cc(-c3c(F)c4c5c(nc(OC[C@@]67CCCN6C[C@H](F)C7)nc5c3F)N3C[C@@]5(F)CC[C@H](N5)[C@H]3CC4)c12` [Example 4-41, 5-ethynyl-6-fluoro-4-((1S,4S,14aR)-4,10,12-trifluoro-8-(((2R,7aS)-2-fluorotetrahydro-1H-pyrrolizin-7a(5H)-yl)methoxy)-1,2,3,4,5,13,14,14a-octahydro-1,4-epiminoazepino[1′,2′:1,7]azepino[2,3,4-de]quinazolin-11-yl)naphthalen-2-ol], the EC50 in test [1] amounted to 8.27 nM; in test [2], 4.42 nM; in test [4] it was 0.501 nM; in test [5], 29.7 nM. Besides, the IC50 at GDP-loaded KRAS-G12D stood at 1.41 nM; in test [3] it was 0.5 nM; on GDP-loaded KRAS-G12C, 0.386 nM; on GDP-loaded KRAS-G12V, 0.949 nM.
For `C[C@H]1Cc2nc(-c3cc(N)cc4ccc(F)c(Cl)c34)c(F)c3nc(OCC45CCCN4CCC5)nc(c23)N2C[C@@]3(F)CC[C@](F)(N3)[C@H]12` [Example 5-3], the EC50 in test [1] stood at 1.45 nM; in test [2], 9.64 nM; in test [4], 0.897 nM; in test [5], 31.3 nM. Moreover, the IC50 amounted to 7.83 nM on GDP-loaded KRAS-G12D, 0.266 nM in test [3], 1.55 nM at GDP-loaded KRAS-G12C and 2.96 nM at GDP-loaded KRAS-G12V.
